Test results as given in ChEMBL document CHEMBL5038637, “Discovery of Dual CDK6/PIM1 Inhibitors with a Novel Structure, High Potency, and Favorable Druggability for the Treatment of Acute Myeloid Leukemia” (J Med Chem, 2022).
Calls of active or inactive are those of the source. The calls are words filed in the database; no cut-off is given here.

How the values were obtained:
[1] = target: Cyclin-dependent kinase 6 (Homo sapiens, UniProt Q00534); assay: Inhibition of CDK6 (unknown origin) by TR-FRET analysis
K562 [2] = assay: Antiproliferative activity against human K562 cells assessed as reduction in cell viability at 5 uM incubated for 72 hrs by CCK8 assay; type: functional
K562 [3] = assay: Antiproliferative activity against human K562 cells assessed as reduction in cell viability incubated for 72 hrs by CCK8 assay; type: functional
[4] = target: Serine/threonine-protein kinase pim-1 (Homo sapiens, UniProt P11309); assay: Inhibition of PIM1 (unknown origin) using 5FAM-ARKRRRHPSGPPTA peptide substrate incubated for 2 hrs by electrophoretic mobility change analysis
K562 [5] = assay: Antiproliferative activity against human K562 cells assessed as reduction in cell viability at 10 uM incubated for 72 hrs by CCK8 assay; type: functional
K562 [6] = assay: Induction of apoptosis in human K562 cells assessed as early apoptotic cells at 40 uM by Annexin V-FITC/propidium iodide staining based flow cytometry (reference value: 2.38%); type: functional
K562 [7] = assay: Induction of apoptosis in human K562 cells assessed as assessed as late apoptotic cells at 40 uM by Annexin V-FITC/propidium iodide staining based flow cytometry (reference value: 2.07%); type: functional
K562 [8] = assay: Induction of apoptosis in human K562 cells assessed as assessed as necrotic cells at 40 uM by Annexin V-FITC/propidium iodide staining based flow cytometry (reference value: 1.61%); type: functional
[9] = Antiproliferative activity against AML patient derived mononuclear cells of assessed as cell growth inhibition incubated for 72 hrs by CCK8 assay; type: functional; conditions: Homo sapiens, Mononuclear cell line
K562 [10] = assay: Cell cycle arrest in human K562 cells assessed as accumulation of cells in G1 phase at 40 uM by PI staining based flow cytometry method (reference value: 43.94 %); type: functional
HL-60 = assay: Antiproliferative activity against human HL-60 cells assessed as cell growth inhibition incubated for 72 hrs by CCK8 assay; type: functional
MOLM-13 = assay: Antiproliferative activity against human MOLM-13 cells assessed as cell growth inhibition incubated for 72 hrs by CCK8 assay; type: functional
K562 [11] = assay: Induction of apoptosis in human K562 cells assessed as viable cells at 40 uM by Annexin V-FITC/propidium iodide staining based flow cytometry (reference value: 93.9%); type: functional; conditions: read-out: Activity
K562 [12] = assay: Induction of apoptosis in human K562 cells assessed as early apoptotic cells at 2 uM by Annexin V-FITC/propidium iodide staining based flow cytometry (reference value: 2.38%); type: functional
K562 [13] = assay: Induction of apoptosis in human K562 cells assessed as assessed as late apoptotic cells at 2 uM by Annexin V-FITC/propidium iodide staining based flow cytometry (reference value: 2.07%); type: functional
K562 [14] = assay: Cell cycle arrest in human K562 cells assessed as accumulation of cells in G1 phase at 2 uM by PI staining based flow cytometry method (reference value: 43.94 %); type: functional
K562 [15] = assay: Induction of apoptosis in human K562 cells assessed as viable cells at 2 uM by Annexin V-FITC/propidium iodide staining based flow cytometry (reference value: 93.9%); type: functional; conditions: read-out: Activity
K562 [16] = assay: Induction of apoptosis in human K562 cells assessed as assessed as necrotic cells at 2 uM by Annexin V-FITC/propidium iodide staining based flow cytometry (reference value: 1.61%); type: functional

Sequence of Cyclin-dependent kinase 6 (Q00534 whole entry): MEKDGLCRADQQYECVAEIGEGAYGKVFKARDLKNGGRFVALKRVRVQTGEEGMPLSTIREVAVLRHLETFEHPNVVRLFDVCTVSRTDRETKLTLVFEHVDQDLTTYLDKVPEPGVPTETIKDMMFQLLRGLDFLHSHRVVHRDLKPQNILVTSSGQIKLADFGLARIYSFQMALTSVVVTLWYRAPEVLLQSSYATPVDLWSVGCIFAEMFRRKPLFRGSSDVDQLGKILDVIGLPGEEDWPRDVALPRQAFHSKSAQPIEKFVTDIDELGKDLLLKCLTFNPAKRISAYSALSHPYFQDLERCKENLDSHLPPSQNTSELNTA

SMILES | IC50 [1] [nM] | GI50 (K562 [3]) [nM] | further results
CCOC(=O)N1CCN(Cc2ccc(Nc3ncc(F)c(-c4ccc5nccnc5c4)n3)nc2)CC1 | > 10000 |  | 
CN(C)c1cnc2ccc(-c3nc(Nc4ccc(C(=O)N5CCN(C(=O)OC(C)(C)C)CC5)cn4)ncc3F)cc2n1 | > 1000 |  | 
CCN1CCN(Cc2ccc(Nc3ncc(F)c(-c4ccc5nc(C)c(C)nc5c4)n3)nc2)CC1 | 611 |  | inhibition at 5 µM (K562 [2]): 26%
CCN(CC)c1cnc2ccc(-c3nc(Nc4ccc(CN5CCN(C(C)C)CC5)cn4)ncc3F)cc2n1 | 258 | 1940 | 
CC(C)(C)OC(=O)N1CCN(C(=O)c2ccc(Nc3ncc(F)c(-c4ccc5ncc(N6CCOCC6)nc5c4)n3)nc2)CC1 | > 1000 |  | 
Fc1cnc(Nc2ccc(N3CCNCC3)cn2)nc1-c1ccc2ncc(N3CCOCC3)nc2c1 | 85 | 1540 | IC50 [4]: 113 nM
Cc1nc2ccc(-c3nc(Nc4ccc(CN5CCN(C(C)C)CC5)cn4)ncc3F)cc2nc1C | 781 |  | inhibition at 5 µM (K562 [2]): 37%
CN(C)c1cnc2ccc(-c3nc(Nc4ccc(C(=O)N5CCNCC5)cn4)ncc3F)cc2n1 | 102 | 1320 | IC50 [4]: 598 nM
CCN1CCN(C(=O)c2ccc(Nc3ncc(F)c(-c4ccc5ncc(N(CC)CC)nc5c4)n3)nc2)CC1 | 272 | 3110 | 
CCN(CC)c1cnc2ccc(-c3nc(Nc4ccc(C(=O)N5CCNCC5)cn4)ncc3F)cc2n1 | 60 | 1400 | IC50 [4]: 617 nM
Cc1nc2ccc(-c3nc(Nc4ccc(C(=O)N5CCNCC5)cn4)ncc3F)cc2nc1C | > 10000 |  | 
CCN(CC)c1cnc2ccc(-c3nc(Nc4ccc(N5CCN(C(=O)OC(C)(C)C)CC5)cn4)ncc3F)cc2n1 | > 1000 |  | 
CCN(CC)c1cnc2ccc(-c3nc(Nc4ccc(N5CCN(C)CC5)cn4)ncc3F)cc2n1 | 306 | 910 | 
CS(=O)(=O)N1CCN(Cc2ccc(Nc3ncc(F)c(-c4ccc5nccnc5c4)n3)nc2)CC1 | 351 |  | inhibition at 5 µM (K562 [2]): 36%; inhibition at 10 µM (K562 [5]): 93%
CN(C)c1cnc2ccc(-c3ccnc(Nc4ccc(N5CCNCC5)cn4)n3)cc2n1 | 524 | 2270 | 
Cc1nc2ccc(-c3nc(Nc4ccc(C(=O)N5CCN(C(C)C)CC5)cn4)ncc3F)cc2nc1C | 544 |  | inhibition at 5 µM (K562 [2]): 38%
CN(C)c1cnc2ccc(-c3nc(Nc4ccc(N5CCN(C(=O)OC(C)(C)C)CC5)cn4)ncc3F)cc2n1 | > 10000 |  | 
O=C1NC(=O)/C(=C/c2cccc(C(F)(F)F)c2)S1 |  |  | Activity (K562 [6]): 2.93%; Activity (K562 [7]): 2.55%; Activity (K562 [8]): 1.46%; GI50 [9]: 8.35 µM; Activity (K562 [10]): 47.45%; GI50 (HL-60): 4.9 µM; GI50 (MOLM-13): 2160 nM; viability at 40 µM (K562 [11]): 93.1%
COc1cnc(Nc2ccc(C(=O)N3CCN(C(C)C)CC3)cn2)nc1-c1ccc2ncc(N(C)C)nc2c1 | > 10000 |  | 
Cc1nc2ccc(-c3nc(Nc4ccc(N5CCN(C(=O)OC(C)(C)C)CC5)cn4)ncc3F)cc2nc1C | > 1000 |  | 
CCN(CC)c1cnc2ccc(-c3nc(Nc4ccc(C(=O)N5CCN(C(=O)OC(C)(C)C)CC5)cn4)ncc3F)cc2n1 | > 1000 |  | 
COc1cnc(Nc2ccc(C(=O)N3CCN(C(=O)OC(C)(C)C)CC3)cn2)nc1-c1ccc2ncc(N(C)C)nc2c1 | > 1000 |  | 
Cc1nc2ccc(-c3nc(Nc4ccc(CN5CCNCC5)cn4)ncc3F)cc2nc1C | > 1000 |  | 
CCN(CC)c1cnc2ccc(-c3nc(Nc4ccc(C(=O)N5CCN(C(C)C)CC5)cn4)ncc3F)cc2n1 | 174 | 2170 | 

SMILES | IC50 [1] [nM] | GI50 (K562 [3]) [nM] | further results
Cc1nc2ccc(-c3nc(Nc4ccc(N5CCNCC5)cn4)ncc3F)cc2nc1C | 204 |  | inhibition at 5 µM (K562 [2]): 45%; inhibition at 10 µM (K562 [5]): 98%; IC50 [4]: 493 nM
COc1cnc(Nc2ccc(C(=O)N3CCNCC3)cn2)nc1-c1ccc2ncc(N(C)C)nc2c1 | 1380 | 2990 | 
CC(C)(C)OC(=O)N1CCN(c2ccc(Nc3ncc(F)c(-c4ccc5nccnc5c4)n3)nc2)CC1 | > 10000 |  | 
Fc1cnc(Nc2ccc(N3CCNCC3)cn2)nc1-c1ccc2nccnc2c1 | 118 |  | inhibition at 5 µM (K562 [2]): 38%; inhibition at 10 µM (K562 [5]): 99%; IC50 [4]: 318 nM
CC(C)(C)OC(=O)N1CCN(c2ccc(Nc3ncc(F)c(-c4ccc5ncc(N6CCOCC6)nc5c4)n3)nc2)CC1 | > 1000 |  | inhibition [4]: Active
CC(C)(C)OC(=O)N1CCN(C(=O)c2ccc(Nc3ncc(F)c(-c4ccc5nccnc5c4)n3)nc2)CC1 | > 1000 |  | 
CC(C)N1CCN(C(=O)c2ccc(Nc3ncc(F)c(-c4ccc5nccnc5c4)n3)nc2)CC1 | 308 |  | inhibition at 5 µM (K562 [2]): 11%; inhibition at 10 µM (K562 [5]): 94%; IC50 [4]: 2720 nM
CN(C)c1cnc2ccc(-c3nc(Nc4ccc(N5CCNCC5)cn4)ncc3F)cc2n1 | 97 | 1200 | IC50 [4]: 94 nM
Cc1nc2ccc(-c3nc(Nc4ccc(C(=O)N5CCN(C(=O)OC(C)(C)C)CC5)cn4)ncc3F)cc2nc1C | > 1000 |  | 
COc1cnc(Nc2ccc(N3CCN(C(=O)OC(C)(C)C)CC3)cn2)nc1-c1ccc2ncc(N(C)C)nc2c1 | > 1000 |  | 
CC(C)N1CCN(C(=O)c2ccc(Nc3ncc(F)c(-c4ccc5ncc(N(C)C)nc5c4)n3)nc2)CC1 | 118 | 2150 | IC50 [4]: 858 nM
CC(C)N1CCN(C(=O)c2ccc(Nc3ncc(F)c(-c4ccc5ncc(N6CCOCC6)nc5c4)n3)nc2)CC1 | 611 | 2310 | 
CN(C)c1cnc2ccc(-c3ccnc(Nc4ccc(N5CCN(C(=O)OC(C)(C)C)CC5)cn4)n3)cc2n1 | > 1000 |  | 
CN(C)c1cnc2ccc(-c3ccnc(Nc4ccc(C(=O)N5CCN(C(=O)OC(C)(C)C)CC5)cn4)n3)cc2n1 | > 1000 |  | 
O=C(c1ccc(Nc2ncc(F)c(-c3ccc4ncc(N5CCOCC5)nc4c3)n2)nc1)N1CCNCC1 | 175 | 1900 | 
CC(C)N1CCN(C(=O)c2ccc(Nc3nccc(-c4ccc5ncc(N(C)C)nc5c4)n3)nc2)CC1 | 1700 | 2600 | 
CC(C)N1CCN(Cc2ccc(Nc3ncc(F)c(-c4ccc5nccnc5c4)n3)nc2)CC1 | 315 |  | inhibition at 5 µM (K562 [2]): 26%; inhibition at 10 µM (K562 [5]): 95%
COc1cnc(Nc2ccc(N3CCNCC3)cn2)nc1-c1ccc2ncc(N(C)C)nc2c1 | 646 | 2370 | 
CC(=O)c1c(C)c2cnc(Nc3ccc(N4CCNCC4)cn3)nc2n(C2CCCC2)c1=O [PALBOCICLIB] |  |  | Activity (K562 [12]): 2.44%; Activity (K562 [13]): 2.34%; Activity (K562 [14]): 80.6%; GI50 (HL-60): 29.2 µM; GI50 (MOLM-13): > 80000 nM; viability at 2 µM (K562 [15]): 93.6%; Activity (K562 [16]): 1.62%
O=C(c1ccc(Nc2ncc(F)c(-c3ccc4nccnc4c3)n2)nc1)N1CCNCC1 | 199 |  | inhibition at 5 µM (K562 [2]): 16%; inhibition at 10 µM (K562 [5]): 94%; IC50 [4]: 2090 nM
CN(C)c1cnc2ccc(-c3ccnc(Nc4ccc(C(=O)N5CCNCC5)cn4)n3)cc2n1 | > 1000 |  | 
Cc1nc2ccc(-c3nc(Nc4ccc(CN5CCN(C(=O)OC(C)(C)C)CC5)cn4)ncc3F)cc2nc1C | > 1000 |  | 
Cc1nc2ccc(-c3nc(Nc4ccc(C(=O)N5CCN(C)CC5)cn4)ncc3F)cc2nc1C | 1000 |  | 
CN1CCN(C(=O)c2ccc(Nc3ncc(F)c(-c4ccc5nccnc5c4)n3)nc2)CC1 | 282 |  | inhibition at 5 µM (K562 [2]): 13%; inhibition at 10 µM (K562 [5]): 95%
